According to patent US5874432A, “Saccharin derivatives useful as proteolytic enzyme inhibitors and compositions and method of use thereof” (priority 1997, dated 1999):
Read-outs that look alike come from different tables or passages of the source.

How the values were obtained:
human leukocyte elastase = target: T1, human leukocyte elastase (Homo sapiens, UniProt P08246); assay: elastase inhibition using human leukocyte elastase (kon and Ki*); type: biochemical; conditions: for Ki: Ki* = koff/kon; for kon: rate of inactivation of enzyme, value is 10^-3 × kon, read-out: Elastase 10^-3 × kon
T1 sequence (P08246 30-267): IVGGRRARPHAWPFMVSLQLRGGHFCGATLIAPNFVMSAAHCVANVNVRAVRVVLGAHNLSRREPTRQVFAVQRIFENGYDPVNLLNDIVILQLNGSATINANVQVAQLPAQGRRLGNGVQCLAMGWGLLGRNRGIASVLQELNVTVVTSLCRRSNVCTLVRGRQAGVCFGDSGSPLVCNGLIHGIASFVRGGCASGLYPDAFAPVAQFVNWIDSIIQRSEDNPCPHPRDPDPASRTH

α-Chymotrypsin = α-Chymotrypsin (Bos taurus, UniProt P00766); assay: α-chymotrypsin inhibition (kon and Ki*); type: biochemical; conditions: for Ki: Ki* = koff/kon
Method: Measurement of the inhibition constant, Ki, of a HLE-inhibitor complex has been described for "truly reversible inhibition constants" usually concerning competitive inhibitors. [Cha, Biochem. Pharmacol., 24, 2177-2185 (1975)]. […] Thus, instead of measuring a Ki, a Ki * is calculated which is defined as the ratio of the koff /kon, the rate of reactivation of the enzyme to the rate of inactivation of the enzyme. The values of koff and kon are measured and Ki * is then calculated. The rate of inactivation, kon, of enzymatic activity was determined for the compounds tested by measuring the enzyme activity of an aliquot of the respective enzyme as a function of time after addition of the test compound. […] The rate of inactivation is then equal to [formula] where [I] is the concentration of the inhibiting compound. The reactivation constant, koff, is similarly determined and the inhibition constant, Ki *, is then calculated as Ki *=koff /kon The values obtained for kon and Ki * for specific substituted saccharin derivatives are shown in TABLE F, the compounds being identified by the Example numbers above where their preparations are described.

[1] = read-out: α-Chymotrypsin 10^-3 × kon

Ki (human leukocyte elastase; human leukocyte elastase, read-out: Ki * values, elastase inhibition (Examples 41-57)) | SMILES | Ki (human leukocyte elastase; read-out: Elastase Ki *) | kon (human leukocyte elastase) | Ki (α-Chymotrypsin) | kon (α-Chymotrypsin; [1]) | kon (α-Chymotrypsin; rate of inactivation of enzyme, value is 10^-3 × kon)
 | CC(=O)OCN1C(=O)c2c(C)cccc2S1(=O)=O [Example 1, 2-acetoxymethyl-4-methylsaccharin] | 102 nM | 630 M⁻¹ s⁻¹ | 917 nM | 1200 M⁻¹ s⁻¹ | 
 | CC(=O)OCN1C(=O)c2c(Cl)cccc2S1(=O)=O [Example 2, 2-acetoxymethyl-4-chlorosaccharin] | 45 nM | 4900 M⁻¹ s⁻¹ | 51 nM | 2900 M⁻¹ s⁻¹ | 
 | O=C1c2c(Cl)cccc2S(=O)(=O)N1CCl [Example 3, 2-chloromethyl-4-chlorosaccharin] | 0.5 nM | 450000 M⁻¹ s⁻¹ | 26 nM | 5800 M⁻¹ s⁻¹ | 
 | O=C1c2c(Cl)cccc2S(=O)(=O)N1Cn1nnn(-c2ccccc2)c1=S [Example 5, 4-chloro-2-(4-phenyl-5-thioxotetrazolin-1-ylmethyl)saccharin] | 6 nM | 44000 M⁻¹ s⁻¹ | 25 nM | 6000 M⁻¹ s⁻¹ | 
 | CC(=O)Nc1cccc(-n2nnnc2SCN2C(=O)c3ccccc3S2(=O)=O)c1 [Example 6, 2-[1-(3-acetamidophenyl)-1H-tetrazol-5-ylthiomethyl]saccharin] | 15 nM | 5500 M⁻¹ s⁻¹ | 300 nM | 3700 M⁻¹ s⁻¹ | 
 | Cn1nnnc1SCN1C(=O)c2ccccc2S1(=O)=O [Example 8, 2-(1-methyl-1H-tetrazol-5-ylthiomethyl)saccharin] |  | 1000 M⁻¹ s⁻¹ | 523 nM |  | 2100 M⁻¹ s⁻¹
 | O=C1c2ccccc2S(=O)(=O)N1C[S+]([O-])c1nnnn1-c1ccccc1 (centres unmarked) [Example 10, 2-(1-phenyl-1H-tetrazol-5-ylsulfinylmethyl)saccharin] | 11 nM | 7000 M⁻¹ s⁻¹ | 157 nM | 7000 M⁻¹ s⁻¹ | 
 | O=C1c2ccccc2S(=O)(=O)N1CS(=O)(=O)c1ccccc1 [Example 12, 2-(phenylsulfonylmethyl)saccharin] | 82 nM | 970 M⁻¹ s⁻¹ | 1000 nM | 1100 M⁻¹ s⁻¹ | 
 | O=C1c2ccccc2S(=O)(=O)N1C[S+]([O-])c1ncccn1 (centres unmarked) [Example 13, 2-(2-pyrimidylsulfinylmethyl)saccharin] | 285 nM | 300 M⁻¹ s⁻¹ | 423 nM | 2600 M⁻¹ s⁻¹ | 
 | O=C1c2ccccc2S(=O)(=O)N1CS(=O)(=O)c1ncccn1 [Example 14, 2-(2-pyrimidylsulfonylmethyl)saccharin] | 138 nM | 600 M⁻¹ s⁻¹ | 392 nM | 2800 M⁻¹ s⁻¹ | 
 | O=C1c2c(-c3ccccc3)cccc2S(=O)(=O)N1CCl [Example 18, 2-chloromethyl-4-phenylsaccharin] | 100 nM | 1000 M⁻¹ s⁻¹ | 620 nM | 210 M⁻¹ s⁻¹ | 
 | O=C(O)Cn1nnnc1SCN1C(=O)c2ccccc2S1(=O)=O [Example 34, 2-[1-(2-carboxymethyl)-1H-tetrazol-5-ylthiomethyl]saccharin] | 256 nM | 400 M⁻¹ s⁻¹ |  |  | 
 | O=C(O)CCC(=O)Nc1cccc(-n2nnnc2SCN2C(=O)c3ccccc3S2(=O)=O)c1 [Example 35, 2-[1-(3-succinoylaminophenyl)-1H-tetrazol-5-ylthiomethyl]saccharin] | 22 nM | 3600 M⁻¹ s⁻¹ |  |  | 
 | O=C1c2ccccc2S(=O)(=O)N1/C=C/CSc1nnnn1-c1ccccc1 [Example 38, trans-2-[3-(1-phenyl-1H-tetrazol-5-ylthio)-1-propenyl]saccharin] | 2 nM | 43000 M⁻¹ s⁻¹ |  |  | 
1000 nM | CC(C)c1cccc2c1C(=O)N(CN1C(=O)CNS1(=O)=O)S2(=O)=O [Example 42D] |  |  |  |  | 
